Source: patent US10702484B2, “Use of 3-(3-hydroxy-4-methoxy-phenyl)-1-(2,4,6-trihydroxy-phenyl) propan-1-one” (SYMRISE AG, priority 2016, dated 2020)

Columns and labels:
group of experts [1] = assay: Modification of the sweet profile of a sucrose solution (sensory panel); format: in vivo; settings: for Beginning of sweet impression (<2 sec) / Overall sweet impression / Sugar full flavour and taste: n=12
Description: The taste profile of a 7 wt % aqueous sucrose solution was compared with by a group of experts (n=12) in each case with a specimen having an equivalent composition and additionally a 1.5% sucrose (B), 5 ppm, 7 ppm or 20 ppm hesperetin dihydrochalcone (I).

[2] = J. Chem. Senses 1979, 4(1), 35-47; cited from earlier work
group of experts [3] = assay: Modulation of the cooling-profile of WS-3 (sensory panel); format: in vivo; settings: 1 ppm added to aqueous solution of 5 wt % sucrose and 4 ppm WS-3; n=5
Description: A group of experts (n=5) evaluated the influence on the cooling profile of an aqueous solution containing 5 wt % sucrose and 4 ppm WS-3.

group of experts [4] = assay: Bitter-reduction of a bitter substance solution (sensory panel rating); format: in vivo; settings: for Bitter impression of bitter substance + compound (I) (average values): n=18
Description: In order to quantify the decrease (i.e. the masking or reduction) in bitter impression in a specimen, the bitterness of a solution containing different bitter tasting substances in specific concentrations was compared by a group of experts (n=18) in each case with a specimen having an equivalent composition and additionally a specific concentration of hesperetin dihydrochalcone (I) (rating: 1 [not bitter] to 100 [extremely bitter]).
For the assessment, i.e. the calculation of the reduction (in %) of the bitter impression in each case the average values of the assessments of the group of experts for the respective bitter substance solution and the bitter substance solution also containing 10 ppm hesperetin dihydrochalcone (I) were used (*sign.lev. α=0.05). For comparison issues, the calculation of the reduction (in %) of the bitter impression for the respective bitter substance solution containing deoxy hesperetin dihydrochalcone is also included.

group of experts [5] = assay: Intensification of the sweet impression of a sugar solution (sensory panel rating); format: in vivo
Description: In order to quantify the intensification of the sweet impression, in each case the sweetness of a 5% sucrose solution was compared by a group of experts with a specimen containing 5% sucrose and 1 ppm, 5 ppm, 7 ppm or 10 ppm of the hesperetin dihydrochalcone (I) to be used according to the invention (rating: 1 [not sweet] to 10 [extremely sweet]). For comparison issues, the intensification of the sweet impression containing with a specimen containing 5% sucrose and 10 ppm or 25 ppm deoxy hesperetin dihydrochalcone is also included.
For the assessment, i.e. calculation of the intensification (in %) of the sweet impression in each case the average values of the assessments of the group of experts for the sucrose solution and the specimen for comparison containing sucrose and hesperetin dihydrochalcone (I) or deoxy hesperetin dihydrochalcone were used.

group of 30 experts = assay: Intrinsic sweetness, two-alternative forced choice (2AFC) test; format: in vivo; settings: 10 ppm in water, α=0.05
Description: A group of 30 experts were asked in a two-alternative forced choice (2AFC) test to select the solution with the stronger sweet impression from a couple of solutions. The evaluated solutions-couples are selected from a group of solutions consisting of a solution of hesperetin dihydrochalcone (I) in water (20 ppm, 15 ppm, 12.5 ppm, and 10 ppm) and a 1.5 wt % aqueous sucrose solution.

group of experts [6] = assay: Improvement of the taste profile of chicken flavour (sensory panel); format: in vivo; settings: addition of 2 ppm; n=3
Description: A group of experts (n=3) evaluated the influence on the taste profile of a chicken flavour with the typical descriptors of chicken meat note, boiled note, bony, light sour by the addition of 2 ppm hesperetin dihydrochalcone (I).

[7] = in soft drinks; purity>90%; cited from earlier work
[8] = in the presence of acids; cited from earlier work
[9] = 7% Sucrose-solution + 1.5% Sucrose (=8.5% sucrose solution)
[10] = 5% sucrose + 10 ppm test substance
[11] = 5% sucrose + 10 ppm test substance, rating 1 to 10
[12] = 7 wt % aqueous sucrose solution

Molecule: OC[C@H]1O[C@@](CO)(O[C@H]2O[C@H](CO)[C@@H](O)[C@H](O)[C@H]2O)[C@@H](O)[C@@H]1O [Sucrose, sucrose, reference compound]
- Beginning of sweet impression (<2 sec) (group of experts [1]; [9]): 5.74
- Overall sweet impression (group of experts [1]; [9]): 6.36
- Sugar full flavour and taste (group of experts [1]; [9]): 5.17

Molecule: COc1ccc(CCC(=O)c2ccccc2O)cc1O [dihydrochalcone (2)]
- Taste (sweetening power) as presented in the publication [2]: intensively sweet tasting

Molecule: COc1ccc(CCC(=O)c2c(O)cccc2O)cc1O [dihydrochalcone (3)]
- Taste (sweetening power) as presented in the publication [2]: tasteless

Molecule: COc1ccc(CCC(=O)c2c(O)cc(O)cc2O)cc1O [hesperetin dihydrochalcone (I), 3-(3-Hydroxy-4-methoxy-phenyl)-1-(2,4,6-trihydroxyphenyl)propan-1-one]
- Cooling effect (in words) (group of experts [3]): slightly improvement
- Perception of cooling impression (in words) (group of experts [3]): faster
- Reduction in bitter impression by adding 10 ppm of compound (I) (group of experts [4]; 5 ppm Chininhydrochloride): −25.0%
- Bitter impression of bitter substance + compound (I) (average values) (group of experts [4]; 5 ppm Chininhydrochloride + 10 ppm compound (I), rating 1 to 100): 29.05
- Reduction of the bitter impression of Chininhydrochloride (in words) (group of experts [4]; 10 ppm): remarkable reduction
- Bitter impression of bitter substance + compound (I) (average values) (group of experts [4]; 100 ppm Naringin + 10 ppm compound (I), rating 1 to 100): 46.54
- Reduction in bitter impression by adding 10 ppm of compound (I) (group of experts [4]; 100 ppm Naringin, * sign.lev. α=0.05): −21.5%*
- Bitter impression of bitter substance + compound (I) (average values) (group of experts [4]; 250 ppm Salicin + 10 ppm compound (I), rating 1 to 100): 51.40
- Reduction in bitter impression by adding 10 ppm of compound (I) (group of experts [4]; 250 ppm Salicin, * sign.lev. α=0.05): −17.6%*
- Reduction in bitter impression by adding 10 ppm of compound (I) (group of experts [4]; 300 ppm Theobromine): −12.4%
- Bitter impression of bitter substance + compound (I) (average values) (group of experts [4]; 300 ppm Theobromine + 10 ppm compound (I), rating 1 to 100): 45.01
- Reduction in bitter impression by adding 10 ppm of compound (I) (group of experts [4]; 500 ppm Coffeine): −13.8%
- Bitter impression of bitter substance + compound (I) (average values) (group of experts [4]; 500 ppm Coffeine + 10 ppm compound (I), rating 1 [not bitter] to 100 [extremely bitter]): 37.46
- Reduction of the bitter impression of Naringin compared to deoxy hesperetin dihydrochalcone (in words) (group of experts [4]; Naringin, 10 ppm versus 50 ppm deoxy hesperetin dihydrochalcone): notable increase in the reduction of the bitter impression
- Intensification of the sweet impression (group of experts [5]; 5% sucrose + 1 ppm test substance): 14.1%
- Sweet impression (1-10) Specimen (Sucrose + Test substance) (group of experts [5]; 5% sucrose + 1 ppm test substance, rating 1 [not sweet] to 10 [extremely sweet]): 6.1
- Intensification of the sweet impression (group of experts [5]; 5% sucrose + 5 ppm test substance): 32.6%
- Sweet impression (1-10) Specimen (Sucrose + Test substance) (group of experts [5]; 5% sucrose + 5 ppm test substance, rating 1 to 10): 7.1
- Intensification of the sweet impression (group of experts [5]; 5% sucrose + 7 ppm test substance): 35.7%
- Sweet impression (1-10) Specimen (Sucrose + Test substance) (group of experts [5]; 5% sucrose + 7 ppm test substance, rating 1 to 10): 7.3
- Intensification of the sweet impression (group of experts [5]; [10]): 38.6%
- Sweet impression (1-10) Specimen (Sucrose + Test substance) (group of experts [5]; [11]): 7.8
- Intensification of the sweet impression compared to 10 ppm deoxy hesperetin dihydrochalcone (in words) (group of experts [5]; 5 ppm, 5% sucrose): clearly higher
- Intensification of the sweet impression compared to the same amount of deoxy hesperetin dihydrochalcone (in words) (group of experts [5]; 10 ppm, 5% sucrose): remarkable intensification
- Sweet impression compared to the 1.5 wt % aqueous sucrose solution (group of 30 experts): remarkably weaker
- Beginning of sweet impression (<2 sec) (group of experts [1]; 7% Sucrose-solution + 5 ppm): 4.63
- Overall sweet impression (group of experts [1]; 7% Sucrose-solution + 5 ppm): 5.24
- Sugar full flavour and taste (group of experts [1]; 7% Sucrose-solution + 5 ppm): 4.26
- Beginning of sweet impression (<2 sec) (group of experts [1]; 7% Sucrose-solution + 7 ppm): 4.78
- Overall sweet impression (group of experts [1]; 7% Sucrose-solution + 7 ppm): 5.93
- Sugar full flavour and taste (group of experts [1]; 7% Sucrose-solution + 7 ppm): 4.42
- Beginning of sweet impression (<2 sec) (group of experts [1]; 7% Sucrose-solution + 20 ppm): 4.49
- Overall sweet impression (group of experts [1]; 7% Sucrose-solution + 20 ppm): 4.90
- Sugar full flavour and taste (group of experts [1]; 7% Sucrose-solution + 20 ppm): 4.11
- Effect on the overall sweet impression (in words) (group of experts [1]; [12]): increases
- Influence on the beginning of sweet impression (sweet impact) and the perceived sugar full flavour and taste (in words) (group of experts [1]; [12]): positive influence
- Influence on the taste profile of chicken flavour (chicken meat note, boiled note, bony, light sour) (group of experts [6]): without a negative influence
- Mouth fullness of chicken flavour (in words) (group of experts [6]): remarkably enhance

Molecule: C=C1C[C@@]23CC[C@H]4[C@@](C)(CCC[C@@]4(C)C(=O)O[C@@H]4O[C@H](CO)[C@@H](O)[C@H](O)[C@H]4O)[C@@H]2CC[C@]1(O[C@@H]1O[C@H](CO)[C@@H](O)[C@H](O[C@@H]2O[C@H](CO)[C@@H](O)[C@H](O)[C@H]2O)[C@H]1O[C@@H]1O[C@H](CO)[C@@H](O)[C@H](O)[C@H]1O)C3 [rebaudioside A]
- Concentration necessary to achieve a sweetness corresponding to a concentration of sucrose of 10% by weight [7]: 400-600 ppm

Molecule: deoxy hesperetin dihydrochalcone [reference compound]
- Reduction in bitter impression by adding 50 ppm of deoxy hesperetin dihydrochalcone (group of experts [4]; 5 ppm Chininhydrochloride): +10.7%
- Reduction of the bitter impression of Chininhydrochloride (in words) (group of experts [4]; 50 ppm): no reduction
- Amount necessary, as factor of the amount of hesperetin dihydrochalcone (I), to obtain a similar reduction of the bitter impression (group of experts [4]; 50 ppm versus 10 ppm): 5
- Reduction in bitter impression by adding 50 ppm of deoxy hesperetin dihydrochalcone (group of experts [4]; 100 ppm Naringin): −6.6%
- Reduction in bitter impression by adding 50 ppm of deoxy hesperetin dihydrochalcone (group of experts [4]; 250 ppm Salicin): −15.2%
- Reduction in bitter impression by adding 50 ppm of deoxy hesperetin dihydrochalcone (group of experts [4]; 500 ppm Coffeine): −11.3%
- Intensification of the sweet impression (group of experts [5]; [10]): 21.2%
- Sweet impression (1-10) Specimen (Sucrose + Test substance) (group of experts [5]; [11]): 6.4
- Intensification of the sweet impression (group of experts [5]; 5% sucrose + 25 ppm test substance): 42%
- Sweet impression (1-10) Specimen (Sucrose + Test substance) (group of experts [5]; 5% sucrose + 25 ppm test substance, rating 1 to 10): 6.9

B1: miraculin (protein, UniProt P13087 30-220, looked up)
Miraculin: DSAPNPVLDIDGEKLRTGTNYYIVPVLRDHGGGLTVSATTPNGTFVCPPRVVQTRKEVDHDRPLAFFPENPKEDVVRVSTDLNINFSAFMPCRWTSSTVWRLDKYDESTGQYFVTIGGVKGNPGPETISSWFKIEEFCGSGFYKLVFCPTVCGSCKVKCGDVGIYIDQKGRRRLALSDKPFAFEFNKTVYF
notes: protein that in the presence of acids transforms the sour impression into a sweet taste impression
- Duration of the effect (sour impression transformed into sweet taste impression) [8]: 2 to 4 h
